The results in this text go back to ChEMBL document CHEMBL1201862, “PubChem BioAssay data set” (2004).

Some test systems named below: SF-268; Malme-3M; OVCAR-4; DU-145; UACC-62; SF-295; CAKI-1; SK-MEL-5; SNB-75; HT-29; NCI/ADR-RES; SK-MEL-28; OVCAR-3; BT-549; SR; NCI-H23; TK-10; NCI-H460; MDA-MB-231; SK-MEL-2.
What all share (test): growth of human tumour cells (NCI), 48 h

SMILES strings stand for the structures.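 48-hour exposure; five concentrations; linearly interpolated endpoints. GI50 marks 50% less growth.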 Calls of active or inactive are those of the source. Cut-off read from the data, not from the text of the source: active = GI50 up to about 1.1 µM and inactive = higher. Some results are limits rather than exact numbers.

`ON(CCc1ccncc1)Cc1ccccc1`: the GI50 in the test with SF-268, in the test with Malme-3M, in the test on OVCAR-4, in the test with DU-145, in the test with UACC-62 and in the test with SF-295 was > 100 µM (inactive) throughout. Further, the GI50 with CAKI-1, in the test with SK-MEL-5, with SNB-75, in the test with HT-29, with NCI/ADR-RES and with SK-MEL-28 was > 100 µM (inactive) each time. Also, the GI50 in the test with OVCAR-3, in the test with BT-549, with SR and in the test with NCI-H23 was > 100 µM (inactive) each time.
For `CCOc1cc2c(cc1O)/C(=N\O)C[C@@H]1[C@@H]2CC[C@]2(C)[C@@H](O)CC[C@@H]12`, the GI50 in the test with SF-268 was < 0.031 µM (active); with OVCAR-4, 6.34 µM (inactive); with DU-145 it was < 0.0197 µM (active); with TK-10, 29.6 µM (inactive); in the test on UACC-62, < 0.0191 µM (active); in the test on CAKI-1, < 0.0235 µM (active). In addition, the GI50 in the test with SK-MEL-5 is 0.01 µM (active); in the test with SNB-75, < 0.01 µM (active); in the test on HT-29 it was 6.71 µM (inactive); in the test with NCI/ADR-RES it was < 0.0276 µM (active); in the test on NCI-H460, < 0.0198 µM (active); with SK-MEL-28, < 0.0276 µM (active). Further, the GI50 was 0.0371 µM (active) in the test with BT-549 and 0.0455 µM (active) in the test with NCI-H23.
Consider `O=C(O)C(Cc1ccccc1)NCc1c(O)ccc2c(-c3ccccc3)cc(=O)oc12` (stereo not given), for which the GI50 with SF-268, with Malme-3M, in the test with OVCAR-4, in the test on DU-145, in the test with TK-10 and in the test on UACC-62 was > 100 µM (inactive) throughout. Moreover, the GI50 in the test on MDA-MB-231, with SF-295, with CAKI-1, with SK-MEL-5, in the test with SK-MEL-2 and with SNB-75 was > 100 µM (inactive) each time. The GI50 with HT-29, in the test on NCI/ADR-RES, with NCI-H460, in the test with SK-MEL-28, in the test on OVCAR-3 and in the test with SR was > 100 µM (inactive) in each case. Also, in the test with NCI-H23, the GI50 was > 100 µM (inactive).
For `O=C(NC(Cl)(C(F)(F)F)C(F)(F)F)c1ccc(F)cc1`, the GI50 with SF-268, with Malme-3M, with OVCAR-4, in the test with DU-145, in the test on TK-10 and in the test on MDA-MB-231 was > 100 µM (inactive) in each case. Moreover, the GI50 was > 100 µM (inactive) in the test with SF-295; > 100 µM (inactive) in the test with CAKI-1; > 100 µM (inactive) in the test with SK-MEL-5; > 100 µM (inactive) in the test with SK-MEL-2; 0.789 µM (active) in the test with SNB-75; > 100 µM (inactive) in the test with HT-29. The GI50 in the test on NCI/ADR-RES, with NCI-H460, in the test on SK-MEL-28, with OVCAR-3, in the test with SR and in the test with NCI-H23 was > 100 µM (inactive) each time.
With `COc1nc2sc3c(c2c(=O)n1CCCSSCCCn1c(OC)nc2sc4c(c2c1=O)CCCC4)CCCC3`, the GI50 with Malme-3M, with OVCAR-4, in the test on DU-145, with TK-10, with UACC-62 and with MDA-MB-231 was > 100 µM (inactive) throughout. Further, the GI50 in the test with SF-295, in the test on CAKI-1, in the test with SK-MEL-5, in the test with SK-MEL-2, with SNB-75 and in the test on HT-29 was > 100 µM (inactive) in each case. For the same molecule, the GI50 in the test with NCI/ADR-RES, in the test with SK-MEL-28 and in the test on NCI-H23 was > 100 µM (inactive) in each case.
Consider `O=P1(O)c2ccccc2CCc2ccccc21`, for which the GI50 in the test with SF-268, with DU-145, in the test on TK-10, with UACC-62, in the test with MDA-MB-231 and in the test with SF-295 was > 100 µM (inactive) each time. Moreover, the GI50 with CAKI-1, with SK-MEL-5, in the test with SK-MEL-2, in the test with SNB-75, in the test with SK-MEL-28 and in the test with OVCAR-3 was > 100 µM (inactive) throughout. Also, the values for the GI50 in the test on BT-549 and with NCI-H23 were 80.7 µM (inactive) and > 100 µM (inactive), respectively.
As for `COC(=O)Cc1c(-c2c(CC(=O)OC)c3ccccc3n2C2OC(COC3OC(COC(C)=O)C(OC(C)=O)C(OC(C)=O)C3OC(C)=O)C(O)C(O)C2O)[nH]c2ccccc12` (stereo not given), the GI50 was > 100 µM (inactive) in the test with DU-145; 71 µM (inactive) in the test with TK-10; > 100 µM (inactive) in the test with UACC-62; 29.2 µM (inactive) in the test with MDA-MB-231; 36.6 µM (inactive) in the test on SF-295; > 100 µM (inactive) in the test with CAKI-1. Further, the GI50 in the test on SK-MEL-5 was > 100 µM (inactive); in the test with SK-MEL-2 it was 24.4 µM (inactive); with HT-29, > 100 µM (inactive); in the test on NCI-H460 it was > 100 µM (inactive); in the test on SK-MEL-28 it was > 100 µM (inactive); in the test with OVCAR-3, > 100 µM (inactive). The GI50 is 44.7 µM (inactive) in the test with BT-549, > 100 µM (inactive) in the test with SR and > 100 µM (inactive) in the test on NCI-H23.
`COc1ccc(S(=O)(=O)Nc2ccc(-c3csc(N4C(=O)/C(=C/c5cccs5)N=C4c4ccccc4)n3)cc2)cc1Cl`: the GI50 is 30.5 µM (inactive) with SF-268; 32.3 µM (inactive) in the test on Malme-3M; 40.2 µM (inactive) in the test on OVCAR-4; 42.2 µM (inactive) in the test on DU-145; 56.1 µM (inactive) in the test with TK-10; 31.1 µM (inactive) in the test with UACC-62. For the same molecule, the GI50 is 32.4 µM (inactive) in the test on MDA-MB-231; 10.4 µM (inactive) in the test on SF-295; > 100 µM (inactive) in the test on CAKI-1; 40.8 µM (inactive) in the test with SK-MEL-5; 40.4 µM (inactive) in the test on SK-MEL-2; 44.8 µM (inactive) in the test on SNB-75. The GI50 was > 100 µM (inactive) in the test with HT-29; 39.4 µM (inactive) in the test with NCI/ADR-RES; 41.1 µM (inactive) with NCI-H460; 65.5 µM (inactive) in the test on SK-MEL-28; 43.6 µM (inactive) with OVCAR-3; 28.6 µM (inactive) with SR. For the same molecule, the GI50 in the test with NCI-H23 is 21.5 µM (inactive).
Take `C=CCc1c(C)nc(C)nc1N/N=C/C=C/c1ccccc1`: the GI50 was 44.1 µM (inactive) in the test with SF-268; 70 µM (inactive) in the test with Malme-3M; 0.0435 µM (active) in the test on OVCAR-4; 33 µM (inactive) with TK-10; 20.6 µM (inactive) in the test with UACC-62; > 100 µM (inactive) in the test with MDA-MB-231. Besides, the GI50 in the test with SF-295 is 19.5 µM (inactive); in the test with CAKI-1, 58.6 µM (inactive); in the test on SK-MEL-5, 20.3 µM (inactive); with SK-MEL-2, 36.7 µM (inactive); with SNB-75 it was 21.9 µM (inactive); in the test on HT-29 it was 30.8 µM (inactive). Besides, the GI50 in the test with NCI/ADR-RES is 23.9 µM (inactive); with NCI-H460, 22.4 µM (inactive); in the test on SK-MEL-28, 41 µM (inactive); with OVCAR-3, 19.4 µM (inactive); with BT-549 it was 23.8 µM (inactive); in the test on SR, 22.6 µM (inactive). In addition, the GI50 with NCI-H23 was 27.9 µM (inactive).
Regarding `C=C1CCCCCCCCCCC1[S+]([O-])c1ccccc1` (stereo not given), the GI50 in the test with SF-268 is 27.7 µM (inactive); in the test on Malme-3M, > 100 µM (inactive); in the test with OVCAR-4, 54.5 µM (inactive); in the test on DU-145, 49.1 µM (inactive); in the test on UACC-62 it was 45.4 µM (inactive); in the test with MDA-MB-231, 24.5 µM (inactive). Besides, the GI50 was 42 µM (inactive) in the test with SF-295; > 100 µM (inactive) in the test on CAKI-1; 29.5 µM (inactive) in the test with SK-MEL-5; > 100 µM (inactive) in the test with SK-MEL-2; 40.3 µM (inactive) in the test on HT-29; 34.4 µM (inactive) in the test with NCI/ADR-RES. Moreover, the GI50 in the test on NCI-H460 is 58.9 µM (inactive); in the test with SK-MEL-28 it was 50.2 µM (inactive); in the test on OVCAR-3 it was 34.1 µM (inactive); in the test on SR, 25.2 µM (inactive); in the test on NCI-H23, 58.5 µM (inactive).
As to `Cc1[nH]n(C2=NCCN2)c(=O)c1C`, the GI50 in the test with SF-268, in the test with Malme-3M, in the test with OVCAR-4, in the test with TK-10, with UACC-62 and with MDA-MB-231 was > 100 µM (inactive) throughout. Moreover, the GI50 was > 100 µM (inactive) with SF-295; > 100 µM (inactive) in the test with CAKI-1; > 100 µM (inactive) in the test on SK-MEL-5; > 100 µM (inactive) in the test on SK-MEL-2; 89.5 µM (inactive) with SNB-75; > 100 µM (inactive) with HT-29. The GI50 in the test on NCI/ADR-RES, with NCI-H460, in the test on OVCAR-3, in the test on BT-549, with SR and with NCI-H23 was > 100 µM (inactive) each time.
Turning to `COc1ccc(NCc2cc(OC)c(OC)c(OC)c2)cc1`, the GI50 was 0.698 µM (active) in the test with SF-268; 0.488 µM (active) with Malme-3M; 17.3 µM (inactive) with OVCAR-4; 0.857 µM (active) with DU-145; 0.274 µM (active) with UACC-62; 0.596 µM (active) in the test with MDA-MB-231. In addition, the GI50 in the test on SF-295 is 0.294 µM (active); with SK-MEL-5, 0.293 µM (active); in the test with SK-MEL-2 it was 0.466 µM (active); in the test on HT-29, 0.312 µM (active); in the test with NCI/ADR-RES, 0.366 µM (active); with NCI-H460, 0.385 µM (active). Also, the GI50 in the test on SK-MEL-28 is 0.396 µM (active); in the test on OVCAR-3, 0.255 µM (active); in the test on SR, 0.228 µM (active); in the test with NCI-H23, 0.973 µM (active).
